Patent US20050142634A1, “Novel modulator of non-genomic activity of nuclear receptors (mnar) and uses thereof” (Wyeth, priority 2001, published 2005)

Assays:
ERα [1] = experiment: MNAR effect on ER-mediated transcription, 2xERE-tk-luciferase reporter in HepG2 cells; type: cell-based; conditions: for MNAR stimulation of ER activity with ligand / effect of kinase inhibitor on MNAR stimulation of ER activity / effect of Src inhibitor on MNAR stimulation of E2 induced ERα activity: HepG2, ERα and MNAR; for MNAR stimulation of ER activity with ligand: ligand at 10 nM; for effect of kinase inhibitor on MNAR stimulation of ER activity: 10 nM E2 plus 1 μM inhibitor; for effect of Src inhibitor on MNAR stimulation of E2 induced ERα activity: treated for 24 hr with 17β-estradiol and inhibitor
Protocol: Transient Transfection Analysis: HepG2 and COS-7 cells were routinely maintained in DMEM supplemented with 10% FBS. Either 50,000 cells per well of HepG2 or 30,000 per well of COS-7 were seeded in 96 well plates in DMEM without phenol red supplemented with 10% charcoal stripped serum. 100 ng of 2×ERE-tk-Luc reporter, 10 ng of pCMV-O-gal internal control, either 1 ng of pcDNA3.1 ERα or 5 ng of pcDNA3.1 ERβ expression vector with or without increasing amount of pcDNA3.1 MNAR or pcDNA3.1 SRC3 expression plasmids were transfected using 0.5 ul of lipofectamine 2000 (Life Technologies, Rockville, Md.) according to protocol. Cells were stimulated either with 10^−8M 17-b-estradiol, tamoxifen, or ICI for 24 hr before being processed for luciferase and β-Galactosidase activity.
(§1) A—HepG2 cells were transfected with expression plasmids for ERα, MNAR and/or SRC3. […] B—HepG2 cells were transfected with expression vectors for ERαand MNAR. […] (SEQ ID NO: 11) from Sequitur, Inc. (Natick, Mass.) or reverse control (C) oligomers complexed with 1 μg/ml of Lipofectamine 2000 in white media.
To evaluate if MNAR overexpression affects transcriptional activity of ER, HepG2 cells were transiently cotransfected with plasmids for expression of ERα and MNAR.

ERα [2] = system: ERα
Protocol: MNAR-Nuclear receptors interaction analysis was performed. […] Formed complexes were isolated using anti-FLAG sepharose beads, boiled in 2×SDS buffer and loaded on SDS gel.
With full-length flag-MNAR, we further evaluated whether MNAR interaction with estrogen receptors is affected by ER ligands. […] Formed complexes were isolated using anti-FLAG sepharose beads.

cSrc [3] = conditions: ERα with MNAR and cSrc, 1 μM E2, compared to unliganded ERα
Excerpt: ER-MNAR-cSrc Interaction Analysis. […] Formed complexes were isolate by pulled-down with anti-cSrc or anti-Lck antibodies and protein A agarose, boiled in 2×SDS buffer and resolved on an SDS-PAGE gel. Gel was dried and subjected to autoradiography.
To address this question, we have used in vitro transcribed/translated estrogen receptors ERα, ERβ and MNAR. […] Formed complexes were pulled-down with anti-cSrc or anti-Lck antibodies and protein A sepharose and then resolved on an SDS gel.

MNAR = MNAR expression in MCF-7 cells (TaqMan, Western blotting); type: cell-based, human
Protocol: as §1, with “MNAR. […] C—MCF-7 cells were transfected with 100 nM antisense (AS)” for “MNAR.”, “media. […] MNAR antiserum was generated against […] peptide encoding amino acids 509-520 ([…]) (SEQ ID NO: 31) of the MNAR.” for “media.”
(§2) It has been previously reported that activation of Src by estradiol triggers Ras/Erks kinase pathway. We expected that MNAR induced Src activation may lead to activation of Erk kinases 1 and 2. […] MNAR antisense oligonucleotide (SEQ ID NO:11) was developed at Sequitur Inc. (Natick, Mass.).
(§3) We next used an antisense approach to assess MNAR's role in estrogen regulation of gene transcription. […] MCF-7 cells were transfected with 100 nM antisense or reverse control oligomers. […] TaqMan analysis was performed using a primer/probe set designed to target MNAR, pS2 and Cathepsin D—two genes known to be regulated by estrogens in MCF-7 cells. FIG. 9C presents the levels of MNAR, pS2 and Cathepsin D mRNA expression, normalized to GAPDH mRNA.

cSrc [4] = experiment: Kinase reaction on immunoprecipitates from MCF-7 cells ([32P]γATP); type: cell-based, human; conditions: material coprecipitated with anti-Src and anti-ER antibodies from MCF-7 cells, E2 10 nM 5 minutes
Protocol: FLAG-MNAR (panel A), cSrc (panel B), or ERα (panels C, D and E) were immunoprecipitated from the cell extracts using corresponding antibodies. Immunoprecipitates were incubated with [32P]γATP for 30 minutes at 30° C. (panels A-C), or with [32P]-γATP and enolase (panel D). Kinase reaction was stopped by boiling in 2×SDS buffer. Phosphorylated material was loaded on SDS gel, which was then dried and subjected to autoradiography.
We evaluated whether MNAR and ER interacted and activated Src kinase in MCF-7 cells. […] Flag-MNAR (FIG. 10, panel A), ERα (FIG. 10, panel C and D), and csrc (FIG. 10, panel B) were immunoprecipitated from the cell extracts using their corresponding antibodies. […] Immunoprecipitates were incubated with [32P]γATP at 30° C. for 30 minutes. Reaction was stopped by boiling in 2×SDS buffer and resolved on a SDS PMG.

Erk 1 and 2 = experiment: E2 induced Erk kinase 1 and 2 activation in MCF7 cells (Western blotting); type: cell-based, human; conditions: for level of total Erk 1 and 2: Erk1/2 antibodies; for effect on E2 induced Erk 1 and 2 activation: MCF7 cells overexpressing MNAR or treated with 100 nM antisense, 10 nM E2 5 minutes
Excerpt: as §2

Cathepsin D = experiment: ER-mediated gene expression in MCF-7 cells (TaqMan); type: cell-based, human; conditions: 100 nM antisense
Protocol: as §1, with “MNAR. […] C—MCF-7 cells were transfected with 100 nM antisense (AS)” for “MNAR.”, “media. […] MNAR antiserum was generated against […] peptide encoding amino acids 509-520 ([…]) (SEQ ID NO: 31) of the MNAR.” for “media.”
as §3

pS2 = experiment: as above; type: cell-based, human; conditions: 100 nM antisense
Protocol: as §1, with “MNAR. […] C—MCF-7 cells were transfected with 100 nM antisense (AS)” for “MNAR.”, “media. […] MNAR antiserum was generated against […] peptide encoding amino acids 509-520 ([…]) (SEQ ID NO: 31) of the MNAR.” for “media.”
as §3

cSrc [5] = experiment: Analysis of cSrc enzymatic activity with acidified enolase as substrate; type: biochemical; conditions: acid denatured enolase as substrate
Protocol: Analysis of cSrc Enzymatic Activity. […] Before reaction proteins were incubated for 1 hr at 4° C. Phosporylation reaction was started by addition of [32P]-γATP and continued at 30° C. for 10 min. Reaction was stopped by addition of 2×SDS buffer. Phosphorylated proteins were separated by SDS-PAGE and the dried gel was subjected to autoradiography.

ER = experiment: MNAR structural-functional analysis, ER-stimulated transcription in HepG2 cells; type: cell-based; conditions: MNAR deletion mutants transfected into HepG2 cells
Protocol: To delineate the regions of MNAR that are responsible for interaction with estrogen receptor and c-Src tyrosine kinase, we performed functional evaluation of MNAR deletion mutants (FIG. 12). A series of C-terminal truncations of MNAR was generated using specially designed oligonucleotides, by amplifying appropriate fragments and cloning them into appropriate expression vectors. These mutants were tested for their abilities to enhance ER-stimulated transcription when transfected into HepG2 cells.
At the C-terminus, MNAR contains a region rich in both proline and glutamic acid. To delineate the regions on MNAR responsible for interaction with estrogen receptors and c-src tyrosine kinase, a functional evaluation of MNAR deletion mutants was performed (FIG. 12). A series of C-terminal truncations of MNAR was generated using specially designed oligonucleotides, by amplifying appropriate fragments and cloning them into appropriate expression vectors. These mutants were tested for their abilities to enhance ER-stimulated transcription when transfected into HepG2 cells.

## CC/C(=C(\c1ccc(O)cc1)c1ccc(OCCN(C)C)cc1)c1ccccc1 [4(OH) tamoxifen]
ERα [1]
  MNAR stimulation of ER activity with ligand: do not support MNAR stimulation of ER activity
ERα [2]
  ERα interaction with MNAR: inhibited

## C[C@]12CC[C@@H]3c4ccc(O)cc4CC[C@H]3[C@@H]1CC[C@@H]2O [E2, 17β-estradiol, reference compound]
cSrc [3]
  Src-ER-MNAR complex formation: significant stimulation
MNAR; MCF-7 cells, 10 nM E2 24 hours, normalized to GAPDH mRNA
  MNAR mRNA expression: substantially stimulated
cSrc [4]
  phosphorylation of endogenous protein of approximately 34 kDa: stimulated
Erk 1 and 2; MCF7 cells, 10 nM E2 for 5 minutes
  Erk 1 and 2 phosphorylation: Strong E2 induced stimulation
Erk 1 and 2; MCF7 cells
  level of total Erk 1 and 2: Neither treatment with MNAR antisense oligonucleotides nor short treatment with E2 affected

## C[C@]12CC[C@@H]3c4ccc(O)cc4C[C@@H](CCCCCCCCC[S+]([O-])CCCC(F)(F)C(F)(F)F)[C@H]3[C@@H]1CC[C@@H]2O (stereo partly drawn) [ICI 182,780]
ERα [1]
  MNAR stimulation of ER activity with ligand: do not support MNAR stimulation of ER activity

## COc1cccc(-c2cc(=O)c3ccccc3o2)c1N [PD98059]
ERα [1]
  effect of kinase inhibitor on MNAR stimulation of ER activity: abrogate MNAR stimulation of ER activity

## CC(C)(C)n1nc(-c2ccc(Cl)cc2)c2c(N)ncnc21 [PP2]
ERα [1]
  effect of kinase inhibitor on MNAR stimulation of ER activity: abrogate MNAR stimulation of ER activity
  effect of Src inhibitor on MNAR stimulation of E2 induced ERα activity: inhibited MNAR stimulation

## O=c1c(-c2ccc(O)cc2)coc2cc(O)cc(O)c12 [genesteine, genistein]
ERα [1]
  effect of Src inhibitor on MNAR stimulation of E2 induced ERα activity: inhibited MNAR stimulation

## MNAR antisense oligonucleotides: antisense (AS) CATGGAGATGTCCCGGAACAGTGCA (SEQ ID NO: 11) from Sequitur, Inc., targets MNAR (listed as DNA, chemistry not given here; listed as Homo sapiens)
MNAR; MCF7 cells, 100 nM antisense, Western blotting with MNAR antibodies
  MNAR level: attenuated
MNAR; MCF-7 cells, 100 nM antisense, TaqMan and Western Blotting
  MNAR expression: significantly inhibited
Cathepsin D
  basal level of Cathepsin D expression: did not significantly affect
Cathepsin D; 10 nM E2
  E2-stimulated Cathepsin D expression: dramatic reduction
pS2
  basal level of pS2 expression: did not significantly affect
pS2; 10 nM E2
  E2-stimulated pS2 expression: dramatic reduction
Erk 1 and 2
  effect on E2 induced Erk 1 and 2 activation: attenuated
Erk 1 and 2; MCF7 cells
  level of total Erk 1 and 2: Neither treatment with MNAR antisense oligonucleotides nor short treatment with E2 affected

## MNAR: novel ER interacting protein, 1130 amino acids, cloned from MCF-7 cells
cSrc [5]
  cSrc enzymatic activity: strongly stimulates
ERα [1]; HepG2 cells transfected with expression plasmid, 2xERE-tk-reporter
  ERα transcriptional activity on overexpression: stimulation of ERα transcriptional activity
cSrc [4]
  phosphorylation of endogenous protein of approximately 34 kDa: dramatically augmented
Erk 1 and 2
  effect on E2 induced Erk 1 and 2 activation: significantly enhanced

## mutant 2: MNAR mutant containing aa 1-469
ER
  ability to enhance ER-stimulated transcription: still able to augment ER transcriptional activity

## mutant 3: MNAR mutant containing aa 1-278
ER
  ability to enhance ER-stimulated transcription: still able to augment ER transcriptional activity

## mutant 4: MNAR mutant containing aa 1-189
ER
  ability to enhance ER-stimulated transcription: still able to augment ER transcriptional activity
